According to US9089129B2, “Non-aerosol foaming alcohol hand sanitizer” (AMERICAN STERILIZER COMPANY, priority 2011, dated 2015):

Columns and labels:
[1] = Foam quality and stability screen in 70% w/w ethanol solution; assay type: physicochemical; set-up: key: Poor: little to no foam generated; Moderate: some foam generated, and/or foam generated collapsed rapidly; Good: large amount of foam was generated and foam was stable (did not collapse rapidly); details: approximately one gram of component in 15 grams of 70% w/w ethanol solution (aqueous), shaken by hand for 15 seconds
Description: A number of different components were screened to evaluate their ability to create a stable foam in a 70% w/w ethanol solution (aqueous). For this evaluation, approximately one gram of each component was added to 15 grams of the ethanol solution in a vial.

Serratia marcescens = experiment: Pigskin model, 1 and 5 inoculation/treatment cycles; details: FIG. 4
Description: Each sample was evaluated at two different inoculation/treatment cycles, i.e., at 1 inoculation/treatment and 5 inoculations/treatments. Tests were completed using the pigskin model, the inoculant, Serratia marcescens, and 1 and 5 inoculation/treatment cycles. The “pigskin model” is a method designed to simulate a HCPHW test using pigskins prepared according to the method described in U.S. Pat. No. 7,985,773 to […] et al., incorporated herein by reference. In this example, pigskin pairs were inoculated with bacteria, rubbed together for 15 seconds, and allowed to air dry for 1 minute. The two different ethanol solutions having concentrations of 62% w/w and 70% w/w and two different product formulations N and O, one having 62% w/w ethanol (N) and the other having 70% w/w ethanol (O), were applied to pairs of pigskins (0.2 ml per pair/0.1 ml per piece). The pairs of pigskins (having the same treatment) were rubbed together for 30 seconds and allowed to air dry for 4 minutes. Neutralizer was then applied to the pigskins, they were debrided for 30 seconds, serially diluted and plated.

| Compound | Foam Profile [1] | log reduction (Serratia marcescens; 1 inoculation/treatment cycle) | log reduction (Serratia marcescens; 5 inoculation/treatment cycles) |
| --- | --- | --- | --- |
| CCCCCCCCCCCC(=O)OC(C)C(=O)OC(C)C(=O)[O-].[Na+] (centres unmarked) [Sodium Lauroyl Lactylate] | Poor |  |  |
| Quaternium-92 | Poor |  |  |
| Alkyl Glucoside | Poor |  |  |
| CO[C@H]1CO[C@H]2[C@@H]1OC[C@H]2OC [Dimethyl Isosorbide] | Poor |  |  |
| CC(O)C(=O)O.CCCCCCCCCCCCCCCCCC(=O)NCCCN(C)C [Stearamidopropyl dimethylamine lactate] | Poor |  |  |
| Isostearamidopropyl Morpholine Lactate | Poor |  |  |
| POE-2 Coco Amine | Poor |  |  |
| Quaternium-26 | Poor |  |  |
| CCO [ethanol] |  | did provide efficacy | efficacy decreased |
| Cocamidopropyl PG-Dimonium Chloride Phosphate | Poor |  |  |
| Lauramine Oxide | Poor |  |  |
| Glycereth-7 Cocoate | Poor |  |  |
| CCCCCCCCCCCCCC(=O)NCCC[N+](C)(C)CC(O)CO.[Cl-] (centres unmarked) [Myristamidopropyl PG-dimonium chloride] | Poor |  |  |
| CCCCCCCCCC[N+](C)(C)CCCCCCCCCC.[Cl-] [Didecyl dimethyl ammonium chloride] | Poor |  |  |
| PPG-15 Stearyl Ether | Poor |  |  |
| CCCCCCCCCCCCCCCCCCCCCC[N+](C)(C)C.COS(=O)(=O)[O-] [Behentrimonium Methosulfate] | Poor |  |  |
| CCCCCCCC/C=C\CCCCCCCC[N+](C)(C)Cc1ccccc1.[Cl-] [Olealkonium chloride] | Poor |  |  |
| OCC(O)CO [Glycerin] | Poor |  |  |
| Glycereth-18 Ethylhexanoate | Moderate |  |  |
